Source: patent US20230146455A1, “TREATMENT OF INFLAMMATORY DISEASES WITH PEPTIDES AND PHARMACEUTICAL COMPOSITIONS” (Yuyu Pharma, Inc., priority 2020, published 2023)
Values joined by “and” are separate entries in the source; they are usually repeats but may differ in a detail not shown here. Equal entries are not always repeated. Where a SMILES comes first, the peptide text is derived from it. [ ]: non-standard residue; d: D form. Hyp = O=C(O)[C@@H]1C[C@@H](O)CN1

Assays:
IL-8/CXCL8 = test: Example 8 main study Luminex, LPS hPBMCs: IL-8/CXCL8; type: cell-based, human
Method: (§1) Human PBMCs were pretreated with YY-101, YDE-011, YDE-043 or reference compound; Xiidra® at various concentration (ranging from […] to 500 nM) for 2 h before stimulation. An equal volume of 0.5% DMSO was used as a vehicle control. Then, the cells were treated with LPS at 5 ug/ml, which was selected based on the pilot study. The supernatants from treated cells were harvested at 24 h and placed in a 96 well for Luminex cytokine & chemokine profiling using a Luminex 200 multiplex assay (Luminex; R&D system, USA).
(§2) The main study arm with triplicate wells per group in a 24-well plate: • 1. Blank • 2. PBMC: 0.5% DMSO • 3. PBMC+LPS (5 ug/ml) • 4. PBMC+YY-101 500 nM • 5. PBMC+YY-101 50 nM • 6. PBMC+YY-101 5 nM • 7. PBMC+YY-101 0.5 nM • 8. PBMC+LPS (5 ug/ml)+Xiidra® 500 nM • 9. PBMC+LPS (5 ug/ml)+Xiidra® 50 nM • 10. PBMC+LPS (5 ug/ml)+Xiidra® 5 nM • 11. PBMC+LPS (5 ug/ml)+Xiidra® 0.5 nM • 12. PBMC+LPS (5 ug/ml)+Xiidra® 0.05 nM • 13. PBMC+LPS (5 ug/ml)+Xiidra® 0.005 nM • 14. PBMC+LPS (5 ug/ml)+YY-101 500 nM • 15. PBMC+LPS (5 ug/ml)+YY-101 50 nM • 16. PBMC+LPS (5 ug/ml)+YY-101 5 nM • 17. PBMC+LPS (5 ug/ml)+YY-101 0.5 nM • 18. PBMC+LPS (5 ug/ml)+YY-101 0.05 nM • 19. PBMC+LPS (5 ug/ml)+YY-101 0.005 nM • 20. PBMC+LPS (5 ug/ml)+YDE-011 500 nM • 21. PBMC+LPS (5 ug/ml)+YDE-011 50 nM • 22. PBMC+LPS (5 ug/ml)+YDE-011 5 nM • 23. PBMC+LPS (5 ug/ml)+YDE-011 0.5 nM • 24. PBMC+LPS (5 ug/ml)+YDE-011 0.05 nM • 25. PBMC+LPS (5 ug/ml)+YDE-011 0.005 nM • 26. PBMC+LPS (5 ug/ml)+YDE-043 500 nM • 27. PBMC+LPS (5 ug/ml)+YDE-043 50 nM • 28. PBMC+LPS (5 ug/ml)+YDE-043 5 nM • 29. PBMC+LPS (5 ug/ml)+YDE-043 0.5 nM • 30. PBMC+LPS (5 ug/ml)+YDE-043 0.05 nM • 31. PBMC+LPS (5 ug/ml)+YDE-043 0.005 nM
(§3) Multiplex assay was used to measure 30 cytokines and chemokines. The 1:200 diluted cell supernatant and serial dilution of the standard were dispensed into a 96 well plate at 50 ul/well. Then, the pre-mixed cocktail of antibody-coated magnetic beads was dispensed at 50 ul/well and incubated at room temperature for 2 h in a horizontal orbital microplate shaker at 800±500 rpm. The beads were washed using a magnetic device to prevent loss. The biotin-antibody was dispensed in 50 ul of each well and incubated at room temperature for 1 h in a shaker at 800±500 rpm. After washing, streptavidin-PE was added at 50 ul/well and incubated at room temperature for 30 min in a shaker under the same conditions. Finally, after washing, wash buffer (100 ul/well) was added to the plate and incubated in a shaker for 2 min. The Luminex™ 200 setting were set according to the manufacturer's protocol. The data was calculated with a standard five-parameter logistic nonlinear regression analysis of the data (xPonent software 4.2, USA). Results were presented as concentration (ng/ml or pg/ml).

IL-2 = test: Example 8 main study Luminex, LPS hPBMCs: IL-2; type: cell-based, human; details: 24 h; for IL-2 MFI, Mean: LPS alone Mean 80.5; for IL-2 Concentration, Mean: LPS alone Mean 3988.7
Method: as §1, §2, §3

[1] = PBMC + LPS(5 ug/ml) + compound 0.005 nM
[2] = PBMC + LPS(5 ug/ml) + compound 0.05 nM
[3] = PBMC + LPS(5 ug/ml) + compound 0.5 nM

SMILES: CC(C)C[C@H](NC(=O)CNC(=O)[C@H](CC(=O)O)NC(=O)[C@H](CCC(N)=O)NC(=O)CNC(=O)[C@@H]1C[C@@H](O)CN1)C(=O)N[C@@H](C)C(=O)NCC(=O)N1CCC[C@H]1C(=O)N[C@@H](CCCCN)C(=O)O [YY-101] (H-[Hyp]GQDGLAGPK-OH; N-terminus and C-terminus assumed)
- IL-8/CXCL8 Concentration, Mean (IL-8/CXCL8; PBMC + LPS(5 ug/ml) + test article 0.005 nM): 58481.9 pg/mL
- IL-8/CXCL8 Concentration (IL-8/CXCL8; PBMC + LPS(5 ug/ml) + test article 0.005 nM, single replicates (1st, 2nd, 3rd)): 61546.6 pg/mL and 56884.9 pg/mL and 57014.3 pg/mL
- IL-8/CXCL8 Concentration, Mean (IL-8/CXCL8; PBMC + LPS(5 ug/ml) + test article 0.05 nM): 59990.6 pg/mL
- IL-8/CXCL8 Concentration (IL-8/CXCL8; PBMC + LPS(5 ug/ml) + test article 0.05 nM, single replicates (1st, 2nd, 3rd)): 57359.8 pg/mL and 60536.4 pg/mL and 62075.6 pg/mL
- IL-8/CXCL8 Concentration, Mean (IL-8/CXCL8; PBMC + LPS(5 ug/ml) + test article 0.5 nM): 60251.0 pg/mL
- IL-8/CXCL8 Concentration (IL-8/CXCL8; PBMC + LPS(5 ug/ml) + test article 0.5 nM, single replicates (1st, 2nd, 3rd)): 60909.2 pg/mL and 57900.7 pg/mL and 61943.2 pg/mL
- IL-8/CXCL8 Concentration, Mean (IL-8/CXCL8; PBMC + LPS(5 ug/ml) + test article 5 nM): 57315.8 pg/mL
- IL-8/CXCL8 Concentration (IL-8/CXCL8; PBMC + LPS(5 ug/ml) + test article 5 nM, single replicates (1st, 2nd, 3rd)): 55583.6 pg/mL and 55980.8 pg/mL and 60383.1 pg/mL
- IL-8/CXCL8 Concentration, Mean (IL-8/CXCL8; PBMC + LPS(5 ug/ml) + test article 50 nM): 54680.4 pg/mL
- IL-8/CXCL8 Concentration (IL-8/CXCL8; PBMC + LPS(5 ug/ml) + test article 50 nM, single replicates (1st, 2nd, 3rd)): 54759.1 pg/mL and 53065.0 pg/mL and 56217.2 pg/mL
- IL-8/CXCL8 Concentration, Mean (IL-8/CXCL8; PBMC + LPS(5 ug/ml) + test article 500 nM): 58292.3 pg/mL
- IL-8/CXCL8 Concentration (IL-8/CXCL8; PBMC + LPS(5 ug/ml) + test article 500 nM, single replicates (1st, 2nd, 3rd)): 60492.6 pg/mL and 59945.6 pg/mL and 54438.6 pg/mL
- IL-8/CXCL8 Concentration, Mean (IL-8/CXCL8; PBMC + test article 0.5 nM, no LPS): 3635.9 pg/mL
- IL-8/CXCL8 Concentration (IL-8/CXCL8; PBMC + test article 0.5 nM, no LPS, single replicates (1st, 2nd)): 1970.8 pg/mL and 5300.9 pg/mL
- IL-8/CXCL8 Concentration, Mean (IL-8/CXCL8; PBMC + test article 5 nM, no LPS): 2809.1 pg/mL
- IL-8/CXCL8 Concentration (IL-8/CXCL8; PBMC + test article 5 nM, no LPS, single replicates (1st, 2nd)): 3848.8 pg/mL and 1769.4 pg/mL
- IL-8/CXCL8 Concentration, Mean (IL-8/CXCL8; PBMC + test article 0.05 uM, no LPS): 8117.7 pg/mL
- IL-8/CXCL8 Concentration (IL-8/CXCL8; PBMC + test article 0.05 uM, no LPS, single replicates (1st, 2nd)): 13586.7 pg/mL and 2648.7 pg/mL
- IL-8/CXCL8 Concentration, Mean (IL-8/CXCL8; PBMC + test article 50 nM, no LPS): 1630.9 pg/mL
- IL-8/CXCL8 Concentration (IL-8/CXCL8; PBMC + test article 50 nM, no LPS, single replicates (1st, 2nd)): 2009.8 pg/mL and 1252.1 pg/mL
- IL-8/CXCL8 Concentration, Mean (IL-8/CXCL8; PBMC + test article 500 nM, no LPS): 1641.8 pg/mL
- IL-8/CXCL8 Concentration (IL-8/CXCL8; PBMC + test article 500 nM, no LPS, single replicates (1st, 2nd)): 1297.1 pg/mL and 1986.4 pg/mL
- LPS-induced IL-8 (in words) (IL-8/CXCL8; at as low as 5 μM, LPS 5 ug/mL 24 hrs): significantly reduced
- IL-2 Concentration, individual wells (IL-2; [1]): 2746.7 pg/mL and 2707.7 pg/mL and 2551.7 pg/mL
- IL-2 MFI, individual wells (IL-2; [1]): 64.5 and 64.0 and 62.0
- IL-2 MFI, Mean (IL-2; [1]): 63.5
- IL-2 Concentration, Mean (IL-2; [1]): 2668.7 pg/mL
- IL-2 Concentration, individual wells (IL-2; [2]): 2785.6 pg/mL and 3174.7 pg/mL and 3058.1 pg/mL
- IL-2 MFI, individual wells (IL-2; [2]): 65.0 and 70.0 and 68.5
- IL-2 MFI, Mean (IL-2; [2]): 67.8
- IL-2 Concentration, Mean (IL-2; [2]): 3006.1 pg/mL
- IL-2 Concentration, individual wells (IL-2; [3]): 2863.5 pg/mL and 2785.6 pg/mL and 2824.6 pg/mL
- IL-2 MFI, individual wells (IL-2; [3]): 66.0 and 65.0 and 65.5
- IL-2 MFI, Mean (IL-2; [3]): 65.5
